From patent publication EP1764363A2, “Substituted acetophenonederivatives” (Riemser Arzneimittel AG, priority 2005, dated 2007)
Several values for one entry are separate records, joined by “and”; a condition that tells them apart may be missing. Equal entries are not always repeated. Marks after values point to notes of the source that are not given here.

Columns and labels:
[1] = tested on: Staphylococcus aureus (Stamm ATCC 6538); assay: Mouse ear test (in vivo), antiseptic effect; parameters: key to Keimwachstum (grade): +++: totale Verhinderung des Keimwachstums; ++: Keimwachstum deutlich reduziert aber nicht völlig unterdrückt; conditions: mouse ears infected with S. aureus ATCC 6538; germ count vs infected untreated animal after 18 and 24 h
S. falcium = assay: Minimal inhibitory concentration (MHK), microtitre plate, TTC staining; type: cell-based; conditions: 48h, 36°C
S. epidermides = assay: as above; type: cell-based; conditions: 48h, 36°C
S. aureus = assay: as above; type: cell-based; conditions: 48h, 36°C
Escherichia coli = assay: as above; type: cell-based; conditions: 48h, 36°C
Candida albicans = assay: as above; type: cell-based; conditions: 48h, 36°C
Rhodococcus equi = assay: as above; type: cell-based; conditions: 48h, 36°C
Micrococcus luteus = assay: as above; type: cell-based; conditions: 48h, 36°C
Bacillus subitilis = assay: as above; type: cell-based; conditions: 48h, 36°C
E. faecium = assay: as above; type: cell-based; conditions: 48h, 36°C
Salmonella sp = assay: as above; type: cell-based; conditions: 48h, 36°C
Excerpt: Das Inokulum für die Tests wurde durch Verdünnung der Mikroorganismen in wässriger 0,85% NaCI-Lösung hergestellt, die Verdünnung auf die Stufe 0,5 nach McFarland eingestellt und die Konzentration spektrometrisch bei einer Wellenlänge von 580nm überprüft. Die Zellsuspensionen wurden zur Verwendung in den Tests auf 10^4 UFC/ml verdünnt. Die MHK-Tests erfolgten (Vorschrift nach J. N. P. Eloff, Planta Medica, Vol. 64, 1998, p 711-713) in Mikrotiterplatten mit 96 Vertiefungen. Serienverdünnungen der Konzentrationen lagen im Bereich 1,00 - 0,0015 mg/mL. Als Kontrollsubstanzen dienten Chloramphenicol bzw. Nistatin (Merck) in einer Konzentration von 0,062 - 0,005 mg/ml bzw. 0,0125 - 0,001 mg/ml. Das Inokulum (100 µl) wurde in alle Vertiefungen gegeben und die Platten für 48h bei 36°C inkubiert. Die antimikrobielle Aktivität wurde durch Zugabe von 20 µl einer 0,5% igen wässrigen Lösung von TTC (Tetrazoliumchlorid, Merck) pro Vertiefung detektiert. Die minimale Hemmkonzentration (MHK) wird als die niedrigste Konzentration der Verbindung definiert die das sichtbare Wachstum hemmt (durch TTC-Färbung indiziert).

[2] = Radical scavenger screening with DPPH radicals (DPPH test); conditions: Konzentrationen 500 und 1000µg/ml
Excerpt: […] die 6 Verbindungen HMF2, HMF-3, CH-1, L5, Q20 und […]. Die […] durch den DPPH-Test ermittelt, wobei sich die UV/VIS-Absorption des freien stabilen […] (Diphenyl-β-picrylhydrazin) in Abhängigkeit vom Zustand von […]. Die Auswertung erfolgt qualitativ (dünnschichtchromatographisch) und quantitativ (photometrisch) mit Ascorbinsäure […] Molyneux P. (2004) The use of the stabel free radical diphenylpicrylhydrazyl (DPPH) for estimating antioxidant activity. Songklanakarin J Sci Technol. 26(2): 211-219).

## COc1ccc(C=CC(=O)c2ccccc2O)cc1 [CH-1, 1-(2-Hydroxyphenyl)-3-(4-methoxyphenyl)propenon]
[1]
  Keimwachstum (grade): ++

## CC(=C(C#N)C#N)c1ccc(O)cc1 [OK, 2-[1-(4-Hydroxyphenyl)ethyliden]malonitril]
S. falcium
  MHK-Werte: 0,5-1,0 mg/ml
S. epidermides
  MHK-Werte: 0,03-0,06 mg/ml
S. aureus
  MHK-Werte: 0,25-0,5 mg/ml
Escherichia coli
  MHK-Werte: 0,5-1,0 mg/ml
Candida albicans
  MHK-Werte: 0,5-1,0 mg/ml
Rhodococcus equi
  MHK-Werte: 0,5-1,0 mg/ml
Micrococcus luteus
  MHK-Werte: 0,12-0,25 mg/ml
Bacillus subitilis
  MHK-Werte: 0,12-0,25 mg/ml
E. faecium
  MHK-Werte: 0,12-0,25 mg/ml

## C[C@@H]1[C@H](O)[C@@H](C)/C=C/C=C/CC/C=C/C=C/C=C/C=C/C(O[C@H]2O[C@H](C)[C@@H](O)[C@H](N)[C@@H]2O)CC2O[C@](O)(CC(O)C(O)CCC(O)CC(O)CC(O)CC(=O)O[C@H]1C)CC(O)C2C(=O)O (some centres unmarked) [Nistatin, reference compound]
Candida albicans
  MHK-Werte: 0,05** mg/ml and 0,12** mg/ml

## O=C(N[C@H](CO)[C@H](O)c1ccc([N+](=O)[O-])cc1)C(Cl)Cl [Chloramphenicol, reference compound]
S. falcium
  MHK-Werte: 0,12 mg/ml
S. epidermides
  MHK-Werte: 0,04 mg/ml
S. aureus
  MHK-Werte: 0,02 mg/ml
Escherichia coli
  MHK-Werte: 0,04 mg/ml
Salmonella sp
  MHK-Werte: 0,06 mg/ml
Rhodococcus equi
  MHK-Werte: 0,04 mg/ml
Micrococcus luteus
  MHK-Werte: 0,05 mg/ml
Bacillus subitilis
  MHK-Werte: 0,02 mg/ml
E. faecium
  MHK-Werte: 0,12 mg/ml

## CC(C)=CCOc1ccccc1C(C)=C(C#N)C#N [L5, 2-{1-[2-(3-Methylbut-2-enyloxy}phenyl]ethyliden}-malononitril]
[2]
  Radikalfänger-Effekt: 60%
[1]
  Keimwachstum (grade): +++

## CC(C)=CCOc1ccc(C(C)=C(C#N)C#N)cc1 [LPK1, 2-{1-[4-(3-Methylbut-2-enyloxy)phenyl]ethyiliden}-malononitril]
S. falcium
  MHK-Werte: > 1,5 mg/ml
S. epidermides
  MHK-Werte: 0,5-1,0 mg/ml
S. aureus
  MHK-Werte: > 1,5 mg/ml
Escherichia coli
  MHK-Werte: > 1,5 mg/ml
Candida albicans
  MHK-Werte: > 1,5 mg/ml
Salmonella sp
  MHK-Werte: > 1,5 mg/ml
Rhodococcus equi
  MHK-Werte: > 1,5 mg/ml
Micrococcus luteus
  MHK-Werte: > 1,5 mg/ml
Bacillus subitilis
  MHK-Werte: > 1,5 mg/ml
E. faecium
  MHK-Werte: > 1,5 mg/ml
